Experimental data as given in US20250302815A1, “PROTEIN TYROSINE PHOSPHATASE TARGETING LIGANDS” (CALICO LIFE SCIENCES LLC, priority 2021, published 2025).

Legend:
MC-38 tumor = assay: syngeneic mouse tumor model, MC-38 tumor growth inhibition; format: in vivo; details: MC-38 tumor-bearing mice, mean tumor volume of 10 mice
Source text: Each point on the curve represents the mean of 10 tumor volume of 10 mice. Error bars depict the standard error of the mean. **=p<0.01.

[1] = target: T1, PTPN2 (HiBIT-PTPN2 in 293T.109 cells) (Homo sapiens, UniProt P17706); assay: HiBiT Degradation 293T.109 PTPN2 (Nano-Glo HiBiT Lytic Assay); format: cell-based; details: 24.0 hours
T1 construct: expressed in transfected cells; host or cells: 293T.109 (293T WT from ATCC)
T1 sequence (P17706 1-415): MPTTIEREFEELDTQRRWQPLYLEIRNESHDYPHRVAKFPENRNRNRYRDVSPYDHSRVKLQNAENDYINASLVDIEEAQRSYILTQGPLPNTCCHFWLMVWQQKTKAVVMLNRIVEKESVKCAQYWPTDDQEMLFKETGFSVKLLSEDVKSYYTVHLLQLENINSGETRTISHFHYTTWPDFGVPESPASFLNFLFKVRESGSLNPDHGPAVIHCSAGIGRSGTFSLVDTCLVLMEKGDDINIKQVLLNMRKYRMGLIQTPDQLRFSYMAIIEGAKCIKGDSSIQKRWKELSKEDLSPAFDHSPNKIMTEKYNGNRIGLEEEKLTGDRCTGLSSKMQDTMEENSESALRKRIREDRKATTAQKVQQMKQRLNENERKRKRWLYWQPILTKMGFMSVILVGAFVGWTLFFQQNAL
Summary of the method: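 293T.109 cells with ectopic N-terminal HiBiT-tagged PTPN2 (5000/well) exposed to compounds for 24 h at 37 °C, 5% CO2; 11-point half-log titration from 10 μM top, duplicates. Remaining HiBiT-PTPN2 read as luminescence with Nano-Glo HiBiT lytic reagent, normalised to untreated cells (0%) and reagent-free wells.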

PTPN2 (B16F10.4 cells) = target: T2, PTPN2 (B16F10.4 cells) (Mus musculus, UniProt Q06180); assay: HiBiT Degradation B16F10.4 PTPN2; format: cell-based; details: 24.0 hours
T2 construct: HiBiT; host or cells: B16F10.4
T2 sequence (Q06180 1-406): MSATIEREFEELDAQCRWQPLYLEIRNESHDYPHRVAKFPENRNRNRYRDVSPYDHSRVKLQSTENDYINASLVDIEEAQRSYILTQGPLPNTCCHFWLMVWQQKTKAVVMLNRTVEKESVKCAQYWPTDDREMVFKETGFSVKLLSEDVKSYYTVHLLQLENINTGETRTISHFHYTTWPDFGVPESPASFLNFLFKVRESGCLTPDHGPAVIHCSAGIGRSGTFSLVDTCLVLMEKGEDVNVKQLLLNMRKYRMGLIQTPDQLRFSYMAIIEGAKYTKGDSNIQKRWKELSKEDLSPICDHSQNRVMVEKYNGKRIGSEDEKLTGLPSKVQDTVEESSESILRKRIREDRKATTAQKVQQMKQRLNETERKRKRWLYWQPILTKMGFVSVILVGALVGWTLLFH

[2] = test system: MC-38 murine colon adenocarcinoma tumors; assay: In vivo efficacy in MC38 syngeneic tumor model; details: MC-38 tumor-bearing mice
Experimental: All experiments were conducted in compliance with AbbVie's Institutional Animal Care and Use Committee and the National Institutes of Health Guide for Care and Use of Laboratory Animals guidelines in a facility accredited by the Association for the Assessment and Accreditation of Laboratory Animal Care. C57Bl/6 female mice were obtained from Charles River (Wilmington, MA). The mice were group-housed 10 per cage. Food and water were available ad libitum. Animals were acclimated to the animal facilities for a period of at least one week prior to commencement of experiments. Animals were tested in the light phase of a 12-hour light: 12-hour dark schedule (lights on 0600 hours).
Cells were grown to passage 3 in vitro. A total of 1×10^5 viable MC-38 cells were inoculated subcutaneously into the right flank of female C57Bl/6 mice (7-12 weeks old) on Day 0. The injection volume was 0.1 mL and was composed of a 1:1 mixture of S-MEM and Matrigel® (Corning, NY, USA). […] The mean tumor volume (TV) at size match was approximately 139±45 mm^3. Following size match, treatments were initiated on the same day. Dosing of mice with Compound 187b (Example 187b) was conducted intravenously, weekly (QW) for 3 weeks. Mice were dosed (10 mg/kg/dose) with either Compound 187b or vehicle controls (n=10 mice/group). Compound 187b was formulated in 5% DMSO+10% PEG400+85% (35% HP-β-CD in water) and was dosed at 5 mL/kg. Anti-PD-1 and isotype antibodies were dosed at 5 mg/kg, […] at 4 day intervals (Q4Dx3). Antibodies were formulated in PBS and dosed at 10 mL/kg. Tumor volume was calculated three times weekly. Measurements of the length (L) and width (W) of the tumor were taken via electronic caliper and the volume was calculated according to the following equation: V=L×W^2/2 using Study Director Version 3.1.399.22 (Study log Systems, Inc, CA, USA). Mice were euthanized when tumor volume was […] or skin ulcerations occurred.

[3] = combination of anti-PD-1 antibody (5 mg/kg) with Compound 187b (10 mg/kg i.v. QWx3)
[4] = monotherapy, Compound 187b 10 mg/kg intravenously QW for 3 weeks, anti-PD-1 5 mg/kg intraperitoneal every 4 days

Structure (SMILES): CC1(C)C[C@@H](Nc2cccc(-c3sc(C(=O)O)c(OCC(=O)O)c3Cl)c2)CCN1S(=O)(=O)Cc1cccc(NC(=O)N2CCC(c3ccc4c5c(cccc35)C(=O)N4[C@H]3CCC(=O)NC3=O)CC2)c1 (single isomer, unassigned) [Example 187b]
- anticancer and tumor growth inhibition activity in vivo (MC-38 tumor; in combination with anti-PD-1 therapy (Q4Dx2)): tumor growth inhibition
- anticancer and tumor growth inhibition activity in vivo (MC-38 tumor; monotherapy, QWx3): tumor growth inhibition
- DC50 [1]: < 0.05 µM
- DC50 (PTPN2 (B16F10.4 cells)): < 0.05 µM
- tolerability ([2]; 10 mg/kg intravenously QW for 3 weeks): well tolerated
- TGIMax (maximal tumor growth inhibition) [2, 3]: 98%
- mice achieving cures [2, 3]: 90%
- TGIMax (maximal tumor growth inhibition) [2, 4]: 75%
- mice achieving complete cures [2, 4]: 10%
- tumor response ([2]; within 7-10 days of monotherapy treatment): apparent tumor stasis and shrinkage

Structure (SMILES): CC1(C)C[C@@H](Oc2cccc(-c3sc(C(=O)O)c(OCC(=O)O)c3Cl)c2)CCN1S(=O)(=O)Cc1cccc(NC(=O)N2CCC(c3ccc4c5c(cccc35)C(=O)N4C3CCC(=O)NC3=O)CC2)c1 (stereo partly drawn) [Example 228, 3-(carboxymethoxy)-4-chloro-5-(3-(((4S)-1-((3-(4-(1-(2,6-dioxopiperidin-3-yl)-2-oxo-1,2-dihydrobenzo[cd]indol-6-yl)piperidine-1-carboxamido)benzyl)sulfonyl)-2,2-dimethylpiperidin-4-yl)oxy)phenyl)thiophene-2-carboxylic acid]
- DC50 [1]: 0.2 to 1 µM
- DC50 (PTPN2 (B16F10.4 cells)): < 0.05 µM

Structure (SMILES): O=C(O)COc1c(C(=O)O)sc(-c2cccc(N[C@H]3CCN(S(=O)(=O)Cc4cccc(NC(=O)N5CCC(c6ccc7c8c(cccc68)C(=O)N7C6CCC(=O)NC6=O)CC5)c4)C4(CC4)C3)c2)c1Cl (stereo partly drawn) [Example 229, 3-(carboxymethoxy)-4-chloro-5-(3-(((7S)-4-((3-(4-(1-(2,6-dioxopiperidin-3-yl)-2-oxo-1,2-dihydrobenzo[cd]indol-6-yl)piperidine-1-carboxamido)benzyl)sulfonyl)-4-azaspiro[2.5]octan-7-yl)amino)phenyl)thiophene-2-carboxylic acid]
- DC50 [1]: 0.05 to 0.2 µM
- DC50 (PTPN2 (B16F10.4 cells)): < 0.05 µM

Structure (SMILES): Cn1c(=O)n(C2CCC(=O)NC2=O)c2ccc(C3CCN(C(=O)Nc4cccc(CS(=O)(=O)N5CC[C@@H](Nc6cccc(-c7sc(C(=O)O)c(OCC(=O)O)c7Cl)c6)CC56CC6)c4)CC3)cc21 (stereo partly drawn) [Example 230, 3-(carboxymethoxy)-4-chloro-5-(3-(((7R)-4-((3-(4-(1-(2,6-dioxopiperidin-3-yl)-3-methyl-2-oxo-2,3-dihydro-1H-benzo[d]imidazol-5-yl)piperidine-1-carboxamido)benzyl)sulfonyl)-4-azaspiro[2.5]octan-7-yl)amino)phenyl)thiophene-2-carboxylic acid]
- DC50 [1]: 0.2 to 1 µM
- DC50 (PTPN2 (B16F10.4 cells)): 0.05 to 0.2 µM

Structure (SMILES): O=C(O)COc1c(C(=O)O)sc(-c2cccc(N[C@@H]3CCN(S(=O)(=O)Cc4cccc(NC(=O)N5CCC(c6ccc7c8c(cccc68)C(=O)N7C6CCC(=O)NC6=O)CC5)c4)C4(CC4)C3)c2)c1Cl (stereo partly drawn) [Example 231, 3-(carboxymethoxy)-4-chloro-5-(3-(((7R)-4-((3-(4-(1-(2,6-dioxopiperidin-3-yl)-2-oxo-1,2-dihydrobenzo[cd]indol-6-yl)piperidine-1-carboxamido)benzyl)sulfonyl)-4-azaspiro[2.5]octan-7-yl)amino)phenyl)thiophene-2-carboxylic acid]
- DC50 [1]: 0.05 to 0.2 µM
- DC50 (PTPN2 (B16F10.4 cells)): < 0.05 µM

Structure (SMILES): Cc1nn(C2CCC(=O)NC2=O)c2ccc(C3CCN(C(=O)Nc4cccc(CS(=O)(=O)N5CC[C@H](Nc6cccc(-c7sc(C(=O)O)c(OCC(=O)O)c7Cl)c6)CC5(C)C)c4)CC3)cc12 (stereo partly drawn) [Example 233, 3-(carboxymethoxy)-4-chloro-5-[3-[[(4S)-1-[[3-[[4-[1-(2,6-dioxo-3-piperidyl)-3-methyl-indazol-5-yl]piperidine-1-carbonyl]amino]phenyl]methylsulfonyl]-2,2-dimethyl-4-piperidyl]amino]phenyl]thiophene-2-carboxylic acid]
- DC50 [1]: 0.2 to 1 µM
- DC50 (PTPN2 (B16F10.4 cells)): 0.2 to 1 µM

Structure (SMILES): Cn1c(=O)n(C2CCC(=O)NC2=O)c2ccc(Cc3ccc(CC(=O)Nc4cccc(CS(=O)(=O)N5CC[C@H](Nc6cccc(-c7sc(C(=O)O)c(OCC(=O)O)c7Cl)c6)CC5(C)C)c4)cc3)cc21 (stereo partly drawn) [Example 236, 3-(carboxymethoxy)-4-chloro-5-[3-[[(4S)-1-[[3-[[2-[4-[[1-(2,6-dioxo-3-piperidyl)-3-methyl-2-oxo-benzimidazol-5-yl]methyl]phenyl]acetyl]amino]phenyl]methylsulfonyl]-2,2-dimethyl-4-piperidyl]amino]phenyl]thiophene-2-carboxylic acid]
- DC50 [1]: < 0.05 µM
- DC50 (PTPN2 (B16F10.4 cells)): < 0.05 µM

Structure (SMILES): Cn1c(=O)n(C2CCC(=O)NC2=O)c2ccc(N3CCC(CCNCCNc4cccc(CS(=O)(=O)N5CC[C@H](Nc6cccc(-c7sc(C(=O)O)c(OCC(=O)O)c7Cl)c6)CC5(C)C)c4)CC3)cc21 (stereo partly drawn) [Example 237, 3-(carboxymethoxy)-4-chloro-5-[3-[[(4S)-1-[[3-[2-[2-[1-[1-(2,6-dioxo-3-piperidyl)-3-methyl-2-oxo-benzimidazol-5-yl]-4-piperidyl]ethylamino]ethylamino]phenyl]methylsulfonyl]-2,2-dimethyl-4-piperidyl]amino]phenyl]thiophene-2-carboxylic acid]
- DC50 [1]: < 0.05 µM
- DC50 (PTPN2 (B16F10.4 cells)): 0.05 to 0.2 µM
